This assay has as its system L1210. The experiment in a line: Cytotoxicity against mouse L1210 cells after 72 hrs. It counts as functional, cell-based. The note with it: L1210, 72 h.

In brackets after ≈: the same amount, converted by molar mass.

Consider `CCCCCCCCC[C@H]1NC(N)=N[C@@]2(CCCO2)[C@H]1C(=O)OCCCCCCCNC(=N)N` [CRAMBESCIN B], for which half-maximal inhibition (IC50) required 1 µg/mL (≈ 2.08 µM).

For the origin of these results see ChEMBL document CHEMBL1148034, “On the structures of crambescins B and C1” (J Nat Prod, 1993).
